The values that follow come from PMC5218480 (PLoS ONE, 2017).

In this assay the test system is MV-4-11 cells. Nature of the assay: Gene expression microarray analysis (Affymetrix PrimeView) and GSEA. In kind it is cell-based, human. Also on record: RFU PODN (11730768_x_at) / Fold change /veh PODN (11730768_x_at) / RFU LINC00158 (11744669_a_at) / Fold change /veh LINC00158 (11744669_a_at) / RFU DUSP10 (11751237_a_at) / Fold change /veh DUSP10 (11751237_a_at) / RFU ID3 (11757404_x_at) / Fold change /veh ID3 (11757404_x_at) / RFU PLEKHG5 (11737974_s_at) / Fold change /veh PLEKHG5 (11737974_s_at) / RFU LRRC4B (11730491_at) / Fold change /veh LRRC4B (11730491_at) / RFU GIMAP4 (11747438_a_at) / Fold change /veh GIMAP4 (11747438_a_at) / RFU KRT8 (11758183_x_at) / Fold change /veh KRT8 (11758183_x_at) / RFU CNN1 (11734310_a_at) / Fold change /veh CNN1 (11734310_a_at) / RFU VPS37D (11726825_at) / Fold change /veh VPS37D (11726825_at) / RFU C10orf10 (11716522_x_at) / Fold change /veh C10orf10 (11716522_x_at) / RFU KIR2DL2 /// KIR2DL4 /// KIR2DL5A /// KIR2DL5B /// KIR2DS1 /// KIR2DS2 /// KIR2DS3 /// KIR2DS4 /// KIR3DL3 /// KIR3DL3 /// KIR3DS1 (11738374_at) / Fold change /veh KIR2DL2 /// KIR2DL4 /// KIR2DL5A /// KIR2DL5B /// KIR2DS1 /// KIR2DS2 /// KIR2DS3 /// KIR2DS4 /// KIR3DL3 /// KIR3DL3 /// KIR3DS1 (11738374_at) / RFU C1QL1 (11718748_at) / Fold change /veh C1QL1 (11718748_at) / RFU TMPRSS4 (11747572_a_at) / Fold change /veh TMPRSS4 (11747572_a_at) / RFU HAMP (11756126_x_at) / Fold change /veh HAMP (11756126_x_at) / RFU RNFT2 (11725882_a_at) / Fold change /veh RNFT2 (11725882_a_at) / RFU NR4A2 (11747474_a_at) / Fold change /veh NR4A2 (11747474_a_at) / RFU ABCC12 (11746883_a_at) / Fold change /veh ABCC12 (11746883_a_at) / RFU TMEM136 (11760407_x_at) / Fold change /veh TMEM136 (11760407_x_at) / RFU CLDN22 /// WWC2 (11732394_at) / Fold change /veh CLDN22 /// WWC2 (11732394_at) / RFU HLA-DPB1 (11760878_x_at) / Fold change /veh HLA-DPB1 (11760878_x_at) / RFU SPINT1 (11716480_a_at) / Fold change /veh SPINT1 (11716480_a_at) / RFU GAP43 (11754022_s_at) / Fold change /veh GAP43 (11754022_s_at) / RFU A4GNT (11735810_at) / Fold change /veh A4GNT (11735810_at) / RFU PRB3 (11715151_x_at) / Fold change /veh PRB3 (11715151_x_at) / RFU TUBB4B (11761932_at) / Fold change /veh TUBB4B (11761932_at) / RFU CAPN14 (11732068_a_at) / Fold change /veh CAPN14 (11732068_a_at) / RFU TMCC2 (11721928_a_at) / Fold change /veh TMCC2 (11721928_a_at) / RFU IRGQ (11745062_a_at) / Fold change /veh IRGQ (11745062_a_at) / RFU FAM174B (11720279_a_at) / Fold change /veh FAM174B (11720279_a_at) / RFU TMPRSS4 (11748680_a_at) / Fold change /veh TMPRSS4 (11748680_a_at) / RFU FAM212B (11763350_a_at) / Fold change /veh FAM212B (11763350_a_at) / RFU PLEKHG5 (11743358_a_at) / Fold change /veh PLEKHG5 (11743358_a_at) / RFU ZSCAN30 (11745921_a_at) / Fold change /veh ZSCAN30 (11745921_a_at) / RFU CMKLR1 (11741424_a_at) / Fold change /veh CMKLR1 (11741424_a_at) / RFU LOC101060620 /// MAPK8IP1 (11723275_at) / Fold change /veh LOC101060620 /// MAPK8IP1 (11723275_at) / RFU SPTSSB (11747773_x_at) / Fold change /veh SPTSSB (11747773_x_at) / RFU PRSS12 (11739890_at) / Fold change /veh PRSS12 (11739890_at) / RFU BIN1 (11741810_x_at) / Fold change /veh BIN1 (11741810_x_at) / RFU WNT11 (11732464_a_at) / Fold change /veh WNT11 (11732464_a_at) / RFU C10orf10 (11716521_a_at) / Fold change /veh C10orf10 (11716521_a_at) / RFU C5orf56 (11738089_at) / Fold change /veh C5orf56 (11738089_at) / RFU CYB561 (11721691_x_at) / Fold change /veh CYB561 (11721691_x_at) / RFU ANKRD19P (11752326_a_at) / Fold change /veh ANKRD19P (11752326_a_at) / RFU OR2T12 /// OR2T33 /// OR2T8 (11738714_s_at) / Fold change /veh OR2T12 /// OR2T33 /// OR2T8 (11738714_s_at) / RFU VCAN (11748164_a_at) / Fold change /veh VCAN (11748164_a_at) / RFU JSRP1 (11732532_at) / Fold change /veh JSRP1 (11732532_at) / RFU KRTAP10-11 (11738290_x_at) / Fold change /veh KRTAP10-11 (11738290_x_at) / RFU MYO3A (11730013_a_at) / Fold change /veh MYO3A (11730013_a_at) / RFU EBF3 (11725865_a_at) / Fold change /veh EBF3 (11725865_a_at) / RFU CAMK2N1 (11719241_x_at) / Fold change /veh CAMK2N1 (11719241_x_at) / RFU C5orf56 (11738088_a_at) / Fold change /veh C5orf56 (11738088_a_at) / RFU OLFML3 (11715873_a_at) / Fold change /veh OLFML3 (11715873_a_at) / RFU LOC100653217 /// NTM (11731650_a_at) / Fold change /veh LOC100653217 /// NTM (11731650_a_at) / RFU MAPK11 (11762145_a_at) / Fold change /veh MAPK11 (11762145_a_at) / RFU FIZ1 (11724087_x_at) / Fold change /veh FIZ1 (11724087_x_at) / RFU OASL (11726364_x_at) / Fold change /veh OASL (11726364_x_at) / RFU SOX15 (11748057_x_at) / Fold change /veh SOX15 (11748057_x_at) / RFU CD79A (11719716_a_at) / Fold change /veh CD79A (11719716_a_at) / RFU HIST1H1D (11736915_at) / Fold change /veh HIST1H1D (11736915_at) / RFU CASKIN2 (11723855_a_at) / Fold change /veh CASKIN2 (11723855_a_at) / RFU LOC730098 (11760151_x_at) / Fold change /veh LOC730098 (11760151_x_at) / RFU OR4N2 (11742367_at) / Fold change /veh OR4N2 (11742367_at) / RFU PRRT2 (11749266_a_at) / Fold change /veh PRRT2 (11749266_a_at) / RFU SNX32 (11753110_a_at) / Fold change /veh SNX32 (11753110_a_at) / RFU CDHR5 (11726645_a_at) / Fold change /veh CDHR5 (11726645_a_at) / RFU RCAN1 (11760418_a_at) / Fold change /veh RCAN1 (11760418_a_at) / RFU FAM167A (11723789_a_at) / Fold change /veh FAM167A (11723789_a_at) / RFU FAM26E (11764081_at) / Fold change /veh FAM26E (11764081_at) / RFU ISYNA1 (11749810_s_at) / Fold change /veh ISYNA1 (11749810_s_at) / RFU ACY1 (11761880_at) / Fold change /veh ACY1 (11761880_at) / RFU 11764098_at / Fold change /veh 11764098_at / RFU SAMD14 (11745864_x_at) / Fold change /veh SAMD14 (11745864_x_at) / RFU NPB (11741838_a_at) / Fold change /veh NPB (11741838_a_at) / RFU TMPRSS6 (11731388_a_at) / Fold change /veh TMPRSS6 (11731388_a_at) / RFU KRTAP10-2 (11738614_at) / Fold change /veh KRTAP10-2 (11738614_at) / RFU ARHGAP8 /// PRR5-ARHGAP8 (11727945_x_at) / Fold change /veh ARHGAP8 /// PRR5-ARHGAP8 (11727945_x_at) / RFU KRTAP5-7 /// NADSYN1 (11734609_at) / Fold change /veh KRTAP5-7 /// NADSYN1 (11734609_at) / RFU RASL12 (11751679_a_at) / Fold change /veh RASL12 (11751679_a_at) / RFU CDKN2B (11736163_a_at) / Fold change /veh CDKN2B (11736163_a_at) / RFU PRF1 (11729649_at) / Fold change /veh PRF1 (11729649_at) / RFU, ZNF638 /// ZNF638-IT1 / Fold change vs veh, ZNF638 /// ZNF638-IT1 / RFU, PANK3 / Fold change vs veh, PANK3 / RFU, SH3YL1 / Fold change vs veh, SH3YL1 / RFU, ZEB2 / Fold change vs veh, ZEB2 / RFU, NRIP1 / Fold change vs veh, NRIP1 / RFU, PTTG1IP / Fold change vs veh, PTTG1IP / RFU, CAPN2 / Fold change vs veh, CAPN2 / RFU, MED14 / Fold change vs veh, MED14 / RFU, SNORA58 / Fold change vs veh, SNORA58 / RFU, C1orf63 / Fold change vs veh, C1orf63 / RFU, LRRFIP1 / Fold change vs veh, LRRFIP1 / RFU, NDUFAF7 / Fold change vs veh, NDUFAF7 / RFU, SLC12A2 / Fold change vs veh, SLC12A2 / RFU, IBTK / Fold change vs veh, IBTK / RFU, ESF1 / Fold change vs veh, ESF1 / Fold change vs veh, TMEM50B / RFU, TAOK1 / Fold change vs veh, TAOK1 / RFU, ACBD3 / Fold change vs veh, ACBD3 / RFU, TMA16 / Fold change vs veh, TMA16 / RFU, RWDD3 / Fold change vs veh, RWDD3 / RFU, BCAT1 / Fold change vs veh, BCAT1 / RFU, EDEM3 / Fold change vs veh, EDEM3 / RFU, TMEM33 / Fold change vs veh, TMEM33 / RFU, WDR75 / Fold change vs veh, WDR75 / RFU, AHCTF1 / Fold change vs veh, AHCTF1 / RFU, TFRC / Fold change vs veh, TFRC / RFU, ZDHHC17 / Fold change vs veh, ZDHHC17 / RFU, NOM1 / Fold change vs veh, NOM1 / RFU, ARL8B / Fold change vs veh, ARL8B / RFU, ZBTB11 / Fold change vs veh, ZBTB11 / RFU, TAMM41 / Fold change vs veh, TAMM41 / RFU, KIAA1704 /// LOC100996395 / Fold change vs veh, KIAA1704 /// LOC100996395 / RFU, ING1 / Fold change vs veh, ING1 / RFU, TRMT61B / Fold change vs veh, TRMT61B / RFU, FUBP3 / Fold change vs veh, FUBP3 / RFU, TP53 / Fold change vs veh, TP53 / RFU, TNKS2 / Fold change vs veh, TNKS2 / RFU, ZFP14 / Fold change vs veh, ZFP14 / RFU, ACTR2 / Fold change vs veh, ACTR2 / RFU, PPP3R1 / Fold change vs veh, PPP3R1 / RFU, PIK3R1 / Fold change vs veh, PIK3R1 / RFU, HNRNPA1 / Fold change vs veh, HNRNPA1 / RFU, RNF170 / Fold change vs veh, RNF170 / RFU, ZNF28 / Fold change vs veh, ZNF28 / RFU, RNGTT / Fold change vs veh, RNGTT / RFU, OGT / Fold change vs veh, OGT / RFU, BRD1 / Fold change vs veh, BRD1 / RFU, MARS / Fold change vs veh, MARS / RFU, ZNF655 / Fold change vs veh, ZNF655 / RFU, FAHD1 / Fold change vs veh, FAHD1 / RFU, BDP1 / Fold change vs veh, BDP1 / RFU, LRRCC1 / Fold change vs veh, LRRCC1 / RFU, ARID1A / Fold change vs veh, ARID1A / RFU, ZNF146 / Fold change vs veh, ZNF146 / RFU, ZNF330 / Fold change vs veh, ZNF330 / RFU, GPN3 / Fold change vs veh, GPN3 / RFU, C9orf123 / Fold change vs veh, C9orf123 / RFU, N4BP2L2 / Fold change vs veh, N4BP2L2 / RFU, ARFIP1 / Fold change vs veh, ARFIP1 / RFU, FAM179B / Fold change vs veh, FAM179B / RFU, BCL10 / Fold change vs veh, BCL10 / RFU, UHRF1BP1L / Fold change vs veh, UHRF1BP1L / RFU, BET1 / Fold change vs veh, BET1 / RFU, CNOT2 / Fold change vs veh, CNOT2 / RFU, ZNF268 / Fold change vs veh, ZNF268 / Fold change vs veh, ZNF507 / RFU, DGCR2 / Fold change vs veh, DGCR2 / RFU, WDSUB1 / Fold change vs veh, WDSUB1 / Fold change vs veh, HSP90B1 /// MIR3652 / RFU, ADSS / Fold change vs veh, ADSS / RFU, GK / Fold change vs veh, GK / RFU, ZNF148 / Fold change vs veh, ZNF148 / RFU, TAF9 / Fold change vs veh, TAF9 / RFU, SLC1A5 / Fold change vs veh, SLC1A5 / RFU, SLMO2 / Fold change vs veh, SLMO2 / RFU, ABCC4 / Fold change vs veh, ABCC4 / RFU, LOC101060439 /// RAP1B / Fold change vs veh, LOC101060439 /// RAP1B / RFU, RFX7 / Fold change vs veh, RFX7 / RFU, GTPBP10 / Fold change vs veh, GTPBP10 / RFU, CNEP1R1 / Fold change vs veh, CNEP1R1 / RFU, BIVM-ERCC5 /// ERCC5 / Fold change vs veh, BIVM-ERCC5 /// ERCC5 / RFU, ILF3 / Fold change vs veh, ILF3 / RFU 11762660_at / Fold change /veh 11762660_at / RFU VCAN (11757783_s_at) / Fold change /veh VCAN (11757783_s_at) / RFU DDX43 (11728927_at) / Fold change /veh DDX43 (11728927_at) / RFU KRT8 (11758188_x_at) / Fold change /veh KRT8 (11758188_x_at) / RFU NKD1 (11759106_at) / Fold change /veh NKD1 (11759106_at) / RFU SRD5A1 (11742802_a_at) / Fold change /veh SRD5A1 (11742802_a_at) / RFU TPSAB1 /// TPSB2 (11721975_s_at) / Fold change /veh TPSAB1 /// TPSB2 (11721975_s_at) / RFU GSTM3 (11746129_a_at) / Fold change /veh GSTM3 (11746129_a_at) / RFU IL23R (11737362_x_at) / Fold change /veh IL23R (11737362_x_at) / RFU TMEM51 (11727254_a_at) / Fold change /veh TMEM51 (11727254_a_at) / RFU PIWIL2 (11732686_x_at) / Fold change /veh PIWIL2 (11732686_x_at) / RFU ORM1 (11744905_x_at) / Fold change /veh ORM1 (11744905_x_at) / RFU CCDC152 (11743942_at) / Fold change /veh CCDC152 (11743942_at) / RFU ECM1 (11717891_a_at) / Fold change /veh ECM1 (11717891_a_at) / RFU IL23R (11748794_a_at) / Fold change /veh IL23R (11748794_a_at) / RFU TNFAIP8L3 (11732012_x_at) / Fold change /veh TNFAIP8L3 (11732012_x_at) / RFU MBOAT4 (11741988_at) / Fold change /veh MBOAT4 (11741988_at) / RFU 11764193_at / Fold change /veh 11764193_at / RFU TMEM53 (11763286_at) / Fold change /veh TMEM53 (11763286_at) / RFU MAGEB2 (11727129_at) / Fold change /veh MAGEB2 (11727129_at) / RFU TMEM200A (11744735_a_at) / Fold change /veh TMEM200A (11744735_a_at) / RFU CCDC152 (11751479_a_at) / Fold change /veh CCDC152 (11751479_a_at) / RFU FAM211A (11726209_a_at) / Fold change /veh FAM211A (11726209_a_at) / RFU RGS16 (11746705_a_at) / Fold change /veh RGS16 (11746705_a_at) / RFU VCAN (11755009_s_at) / Fold change /veh VCAN (11755009_s_at) / RFU RHOB (11743442_s_at) / Fold change /veh RHOB (11743442_s_at) / RFU RGS16 (11720943_a_at) / Fold change /veh RGS16 (11720943_a_at) / RFU RGS16 (11720944_at) / Fold change /veh RGS16 (11720944_at) / RFU, VPS4B / Fold change vs veh, VPS4B / RFU, CREB1 / Fold change vs veh, CREB1 / RFU, DNAJC13 / Fold change vs veh, DNAJC13 / RFU, GNAQ / Fold change vs veh, GNAQ / RFU, CDK5R1 / Fold change vs veh, CDK5R1 / RFU, ZRANB3 / Fold change vs veh, ZRANB3 / RFU, CUL4A / Fold change vs veh, CUL4A / RFU, CCNY / Fold change vs veh, CCNY / RFU, UFL1 / Fold change vs veh, UFL1 / RFU, COG3 / Fold change vs veh, COG3 / RFU, DIAPH2 / Fold change vs veh, DIAPH2 / RFU, SKA2 / Fold change vs veh, SKA2 / RFU, AFF3 / Fold change vs veh, AFF3 / RFU, LMF1 / Fold change vs veh, LMF1 / RFU, IPO11 / Fold change vs veh, IPO11 / RFU, DFFB / Fold change vs veh, DFFB / RFU, FOXP1 / Fold change vs veh, FOXP1 / RFU, CARD8 / Fold change vs veh, CARD8 / RFU, STRN3 / Fold change vs veh, STRN3 / RFU, ADK / Fold change vs veh, ADK / RFU, RASSF2 / Fold change vs veh, RASSF2 / RFU, WIPF1 / Fold change vs veh, WIPF1 / RFU, LARP1B / Fold change vs veh, LARP1B / RFU, RASA1 / Fold change vs veh, RASA1 / RFU, RB1 / Fold change vs veh, RB1 / RFU, PPFIA1 / Fold change vs veh, PPFIA1 / RFU, MAT2A / Fold change vs veh, MAT2A / RFU, CCT5 / Fold change vs veh, CCT5 / RFU, WDR92 / Fold change vs veh, WDR92 / RFU, CUX1 / Fold change vs veh, CUX1 / RFU, TTC7A / Fold change vs veh, TTC7A / RFU, TMEM135 / Fold change vs veh, TMEM135 / RFU, DEPTOR / Fold change vs veh, DEPTOR / RFU, CPM / Fold change vs veh, CPM / RFU, DNAJB6 / Fold change vs veh, DNAJB6 / RFU, CACNA2D3 / Fold change vs veh, CACNA2D3 / RFU, DTX4 / Fold change vs veh, DTX4 / RFU, TFCP2 / Fold change vs veh, TFCP2 / RFU, GMCL1 /// GMCL1P1 / Fold change vs veh, GMCL1 /// GMCL1P1 / RFU, AEBP2 / Fold change vs veh, AEBP2 / RFU, SNHG1 /// SNORD22 /// SNORD25 /// SNORD26 /// SNORD27 /// SNORD28 /// SNORD29 /// SNORD31 / Fold change vs veh, SNHG1 /// SNORD22 /// SNORD25 /// SNORD26 /// SNORD27 /// SNORD28 /// SNORD29 /// SNORD31 / Fold change (Aza/veh), C12orf56 (ProbeSet 11735607_a_at) / Fold change (ACY-1035/veh), C12orf56 (ProbeSet 11735607_a_at) / Fold change (Aza/veh), FGFR1OP (ProbeSet 11751329_s_at) / Fold change (ACY-1035/veh), FGFR1OP (ProbeSet 11751329_s_at) / Fold change (Aza/veh), VPS36 (ProbeSet 11739960_a_at) / Fold change (ACY-1035/veh), VPS36 (ProbeSet 11739960_a_at) / RFU SYPL1 (11715823_x_at) / Fold change /veh SYPL1 (11715823_x_at) / RFU IGFBP7 (11715501_s_at) / Fold change /veh IGFBP7 (11715501_s_at) / RFU REEP3 (11722064_at) / Fold change /veh REEP3 (11722064_at) / RFU IGLL1 (11728026_x_at) / Fold change /veh IGLL1 (11728026_x_at): dose or concentration left out as unconfirmed. The following applies: ProbeSet 11758440_s_at; LIST B.

Consider `Nc1ncn([C@@H]2O[C@H](CO)[C@@H](O)[C@H]2O)c(=O)n1` [azacitidine], for which the “Fold change vs veh, RFX7” value is recorded as 0.86.
